Legend:
5-HT1A [1] = biological target: T1, 5-HT1A (Mus musculus, UniProt Q64264); assay: Competition binding vs [3H]8-OH-DPAT in mouse brain membranes
T1 construct: tissue BioIVT; host or cells: whole C57BL/6 mouse brain minus cerebellum, male and female
T1 sequence (Q64264 1-421): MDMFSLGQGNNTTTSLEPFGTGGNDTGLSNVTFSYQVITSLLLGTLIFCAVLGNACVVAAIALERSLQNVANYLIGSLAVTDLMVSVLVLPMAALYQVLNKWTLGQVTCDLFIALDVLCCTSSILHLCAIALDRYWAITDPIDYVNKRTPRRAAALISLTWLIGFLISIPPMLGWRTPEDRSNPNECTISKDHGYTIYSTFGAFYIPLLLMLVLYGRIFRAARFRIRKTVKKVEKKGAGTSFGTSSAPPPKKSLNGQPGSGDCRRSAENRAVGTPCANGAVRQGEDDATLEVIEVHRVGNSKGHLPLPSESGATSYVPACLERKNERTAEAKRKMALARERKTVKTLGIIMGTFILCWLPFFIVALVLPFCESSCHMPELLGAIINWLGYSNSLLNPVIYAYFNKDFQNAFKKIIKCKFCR
Description: (§1) Competition binding studies were conducted in mouse brain tissue as previously described (Glatfelter et al. [2022b]). Briefly, the experiments utilized membranes prepared from whole C57BL/6 mouse brain minus cerebellum (BioIVT, Westbury, NY, USA). […] We assessed the ability of test drugs to compete for [^3H]M100907 binding at 5-HT2A (1 nM) or [^3H]8-OH-DPAT binding at 5-HT1A (0.5 nM). Radioligands were purchased commercially (PerkinElmer, Boston, MA, USA). Nonspecific binding was determined using 10 µM ketanserin for 5-HT2A and serotonin for 5-HT1A. All data represent 3 experiments performed in triplicate.
(§2) Concentration-response data were fit to a single site non-linear regression model. For the HTR studies, potencies were determined from the ascending limb of the dose-response curves using ED50 potency values from [agonist] vs. response (variable slope, four parameter) least squares fit non-linear regression analyses, whereas efficacy was defined by the top output parameter or Emax from the aforementioned analyses. […] Best-fit values for ED50 and Emax from non-linear regression analyses were compared by extra sum-of-squares F tests. Mean effects for each behavioral endpoint were compared using two-way ANOVA (dose x sex), followed by Sidak’s multiple comparisons post-hoc test. Mean effects for pooled mouse behavioral data were compared via Welch’s ANOVA with Dunnett’s T3 post-hoc test, comparing all doses to saline vehicle controls (0 mg/kg). Alpha was set to 0.05 for all analyses.

5-HT2A = biological target: T2, 5-HT2A (Mus musculus, UniProt P35363); assay: Competition binding vs [3H]M100907 in mouse brain membranes
T2 construct: tissue BioIVT; host or cells: whole C57BL/6 mouse brain minus cerebellum, male and female
T2 sequence (P35363 whole entry): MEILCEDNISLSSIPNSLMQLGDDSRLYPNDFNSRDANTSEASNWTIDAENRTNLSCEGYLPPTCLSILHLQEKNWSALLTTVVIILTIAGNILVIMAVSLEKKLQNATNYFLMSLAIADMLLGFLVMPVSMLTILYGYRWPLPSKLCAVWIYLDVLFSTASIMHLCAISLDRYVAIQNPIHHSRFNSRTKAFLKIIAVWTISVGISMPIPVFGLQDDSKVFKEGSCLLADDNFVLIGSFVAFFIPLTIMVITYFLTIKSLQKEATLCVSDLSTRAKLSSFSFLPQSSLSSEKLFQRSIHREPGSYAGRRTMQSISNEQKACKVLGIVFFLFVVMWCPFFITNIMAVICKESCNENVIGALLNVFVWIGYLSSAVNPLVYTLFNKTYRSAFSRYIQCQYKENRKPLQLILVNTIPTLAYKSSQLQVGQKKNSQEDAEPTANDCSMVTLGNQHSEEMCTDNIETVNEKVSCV
Description: as §1, §2

5-HT1A [2] = biological target: T1, 5-HT1A; conditions: previously determined, used to calculate Ki; read-out: Kd of radioligand at 5-HT1A; cited from earlier work

| SMILES | Ki (5-HT1A [1]; 5-HT1A binding affinity (Ki), males and females, male and female mouse brain membranes, summary statement) | Ki (5-HT1A [1]; [3H]8-OH-DPAT Binding ♀ m5-HT1A Ki, female mouse brain membranes) | Ki (5-HT1A [1]; [3H]8-OH-DPAT Binding ♂ m5-HT1A Ki, male mouse brain membranes) | Ki (5-HT2A; 5-HT2A binding affinity (Ki), males and females, male and female mouse brain membranes, summary statement) | Ki (5-HT2A; [3H]M100907 Binding ♀ m5-HT2A Ki, female mouse brain membranes) | Ki (5-HT2A; [3H]M100907 Binding ♂ m5-HT2A Ki, male mouse brain membranes) | Kd (5-HT1A [2]) |
| --- | --- | --- | --- | --- | --- | --- | --- |
| CN(C)CCc1c[nH]c2cccc(O)c12 [Psilocin] | 1 to 100 nM | 100 nM | 113 nM | 1 to 100 nM | 113 nM | 110 nM | – |
| CCCN(CCC)C1CCc2cccc(O)c2C1 (stereo not shown) [[^3H]8-OH-DPAT] | – | – | – | – | – | – | 1.03 nM |

Source: PMC12449377, “Psychedelic-like effects induced by 2,5-dimethoxy-4-iodoamphetamine, lysergic acid diethylamide, and psilocybin in male and female C57BL/6J mice” (Psychopharmacology, 2025)
